Laboratory results taken from PMC4992173, “Divergent synthesis and identification of the cellular targets of deoxyelephantopins” (Nature Communications, 2016).

Biological target: T1, Cystathionine beta-synthase (CBS) (Homo sapiens, UniProt P35520)
T1 construct: endogenous in cells; host or cells: MCF7
Assay: In situ competitive profiling in live MCF7 cells (LFQ): CBS
Format: cell-based
Conditions: protein CBS, 4 h, then 10 µM 24c, n=4
From the text: In our efforts to determine the direct molecular targets of deoxyelephantopin we first performed a gel-based competitive in situ proteomic profiling assay[41] […] While the greater conformational flexibility of probe 24c could potentially lead to more promiscuous target engagement relatively to deoxyelephantopin, it was favoured based on the fact that an alkyne moiety appended to the rigid scaffold of deoxyelephantopin may hinder some of its interactions. MCF7 cells were pretreated with various concentrations of deoxyelephantopin for 4 h, harvested, lysed and the lysates were treated with the fluorogenic probe 24c-Cy3 (10 μM; Supplementary Fig. 10). […] Furthermore, cells were pretreated with 20 μM concentration of deoxyelephantopin or 24c and the proteomic profiles were compared (Fig. 6b, Supplementary Fig. 11). Multiple bands were detected that were equally competed by both DEP and 24c, thus again confirming that 24c can be used as an acceptable clickable analogue of deoxyelephantopin in pulldown assays. Having established the optimal labelling conditions by SDS–PAGE, we next carried out a mass spectrometry-based competitive profiling assay[42] coupled with the method of stable isotope labelling of amino acids in culture (SILAC)[43]. […]
Figure 6 Proteome-wide identification of deoxyelephantopin targets. […] Quantification was performed using label-free quantification (LFQ) method (n=4). […]

T1 sequence (P35520 whole entry): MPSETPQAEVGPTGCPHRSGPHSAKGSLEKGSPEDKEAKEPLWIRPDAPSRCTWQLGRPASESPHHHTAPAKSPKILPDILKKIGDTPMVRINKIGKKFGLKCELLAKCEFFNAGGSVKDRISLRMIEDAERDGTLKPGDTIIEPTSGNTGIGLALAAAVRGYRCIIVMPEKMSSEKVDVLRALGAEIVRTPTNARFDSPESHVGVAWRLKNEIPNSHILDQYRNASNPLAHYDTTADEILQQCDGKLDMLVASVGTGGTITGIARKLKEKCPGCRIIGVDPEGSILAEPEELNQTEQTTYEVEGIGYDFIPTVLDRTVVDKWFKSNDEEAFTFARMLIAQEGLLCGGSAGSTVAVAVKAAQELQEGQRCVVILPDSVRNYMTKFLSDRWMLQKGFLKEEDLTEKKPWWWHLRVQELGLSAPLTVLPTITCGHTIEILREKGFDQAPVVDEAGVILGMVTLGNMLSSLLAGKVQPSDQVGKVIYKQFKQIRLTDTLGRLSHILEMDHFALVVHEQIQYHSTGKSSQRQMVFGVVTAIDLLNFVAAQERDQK

C=C(C)C(=O)O[C@H]1CC2=C[C@@H](C/C(C)=C/[C@H]3OC(=O)C(=C)[C@H]13)OC2=O [deoxyelephantopin]
LFQ ratio 20 µM Deoxyelephantopin/DMSO with 24c: 0.00
